Data taken from paper PMC8188212, “Multi‐Arm PEG/Peptidomimetic Conjugate Inhibitors of DR6/APP Interaction Block Hematogenous Tumor Cell Extravasation” (Advanced Science, 2021).
Square brackets hold non-standard residues; d marks the D form. Side chains are listed from the residue outwards. Ends that are not written are not given here. maleimide = maleimide: 4-arm PEG5k maleimide reacting with the C-terminal Cys thiol

Key:
[1] = target: T1, DR6/APP interaction (B16F10, SGC-996, LLC1 TCs on DR6 protein coated plates) (Homo sapiens, UniProt O75509); test: Cell attachment of TCs to DR6-coated plates; assay type: cell-based; conditions: 1 h at 37 °C, crystal violet, microplate reader, n = 3
T1 construct: His tag (inferred from RED-tris-NTA labelling of the same purchased protein in the MST assay); purchased Sino Biology, Inc. (Shanghai, China); host or cells: DR6 coated on 96-well plates; tumour cells B16F10, SGC-996, LLC1 carry endogenous APP
T1 sequence (O75509 42-349 limits assumed): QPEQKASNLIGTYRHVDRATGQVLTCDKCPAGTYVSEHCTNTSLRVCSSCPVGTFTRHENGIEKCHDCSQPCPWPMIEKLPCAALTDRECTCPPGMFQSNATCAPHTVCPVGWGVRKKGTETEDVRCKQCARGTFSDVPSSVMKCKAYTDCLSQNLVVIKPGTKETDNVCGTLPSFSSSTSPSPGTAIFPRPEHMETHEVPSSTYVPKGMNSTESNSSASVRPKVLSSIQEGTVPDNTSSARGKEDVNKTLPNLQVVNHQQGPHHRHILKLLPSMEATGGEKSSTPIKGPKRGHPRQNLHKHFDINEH
Procedure: DR6 protein in 50 µL PBS (50 × 10^–9 M) was added into 96‐well plates. The 96‐well plates were incubated for 2 h at 37 °C, followed by drying overnight at 4 °C. Next day, the 96‐well plates were warmly washed three times with PBS, and then blocked by PBS containing 1% BSA for 1 h at 37 °C. The plates were washed three times with PBS. TCs were suspended in serum‐free DMEM at a density of 3 × 10^5 cells mL^–1; 50 µL of the cell suspension was added to wells coated with the DR6‐targeting peptides. Different concentrations of DR6‐targeting peptides or PBS were added into the plates. After incubation at 37 °C for 1 h, non‐adherent cells were gently washed away with PBS, fixed with 4% paraformaldehyde at room temperature for 30 min, washed, stained with 5% crystal violet 50 µL per well for 10 min, gently washed with PBS, and decolorized with 33% acetic acid. The attachment cell number was measured by a microplate reader.^[ ^53 ^]

[2] = Biodistribution, ex vivo fluorescence imaging of organs; assay type: in vivo; conditions: Cy7-labeled peptides, intravenous, mice
Procedure: To quantify the biodistribution, mice were intravenously injected with Cy7‐labeled peptides. Mice were sacrificed at 6, 12, and 24 h after injection. All organs were harvested and subjected to ex vivo fluorescence imaging.

[3] = tested on: B16F10, 4T1, and CT26 lung metastasis models; test: In vivo anti-metastasis assay, lung metastasis models; set-up: species or system mice
Procedure: 2 × 10^5 GFP‐B16F10 cells, 2 × 10^5 4T1, or 2 × 10^5 CT26 in 100 µL PBS were injected to the lateral tail vein of mice, respectively. The mice were intravenously injected with saline, AHP‐DRI‐12, and PEG‐tAHP‐DRI (0.2 µg g^–1 AHP‐DRI‐12) shortly before and 24 h after injection of B16F10. Each formulation was administered every 2 days for a total of seven times. After 15 days, mice were sacrificed and perfused with PBS and 4% paraformaldehyde. The hearts, livers, spleens, lungs, and kidneys were collected for H&E staining and immunohistochemistry analysis. Lung metastases were analyzed by quantitation of GFP and metastases nodes.

[4] = tested on: 4T1 orthotopic tumor model; test: Spontaneous lung metastasis of 4T1 orthotopic breast tumor model; assay type: in vivo, Balb/c female mice; conditions: intravenous, 0.2 µg g^–1 AHP-DRI-12, every 2 days, 14 times; sacrificed day 30
Procedure: The spontaneous lung metastasis of orthotopic breast tumor model was established via injection of 4T1 cells into the fourth inguinal mammary gland of Balb/c female mice. The mice were intravenously injected with saline, AHP‐DRI‐12, and PEG‐tAHP‐DRI (0.2 µg g^–1 AHP‐DRI‐12), respectively, every 2 days for total of 14 times. Mice were sacrificed on day 30 and their lungs were collected for observation and histological analysis.

HUVECs = test: MTT cytotoxicity assay; assay type: cell-based, human; conditions: up to 10 × 10^−6 M, 24, 48, 72 h, n = 3
Procedure: To evaluate the cytotoxicity of DR6‐targeting peptides, MTT assay was conducted. Briefly, 4 × 10^3 HUVECs were added in 96‐well plates and grown overnight before incubating with AHP‐DRI‐12 and PEG‐tAHP‐DRI (0.1 × 10^–6, 1.0 × 10^–6, 10 ×10^–6 M AHP‐DRI‐12). After incubating for 24, 48, and 72 h, 100 µL of 0.5 mg mL^–1 MTT was added to each well, and the plates were incubated at 37 °C for 4 h. After the removal of the supernatant, the precipitate was dissolved in 150 µL dimethyl sulfoxide, and the absorbance was measured at 490 nm using a microplate reader.

[5] = B16F10 tumor-bearing mice, 15 days

Q: For “PEG-tAHP-DRI: tetra-(D-retro-inverso isomer of AHP-12) substitued 4-arm PEG5k ([dP][dT][dT][dA][dD][dI][dT]C([maleimide-4‑arm PEG5k]); also: four peptides on one 4-arm PEG5k)”, which “disruption of attachment between TCs and DR6-coated plates” value [1] is on record?
A: most obvious disruption of attachment

Q: And the “distribution in kidney and liver after 12 h” value [2]?
A: much higher distribution in kidney and liver

Q: And the “distribution intensity within 6 h, compared with AHP-DRI-12” value [2]?
A: much lower distribution intensity

Q: And the “organ accumulation within 6 h after injection” value [2]?
A: accumulate mostly in kidney and slightly in liver

Q: And the “necroptosis in lungs, p-RIPK1 immunohistochemical analysis” value [3, 5]?
A: dramatic decrease of necroptosis in lungs

Q: And the “pulmonary vessel integrity, CD31 staining” value [3, 5]?
A: remained relatively intact and orderly

Q: What about the “expression level of GFP mRNA in lungs” value ([3]; GFP-B16F10 model, compared with vehicle-treated and AHP-DRI-12-treated mice, n = 6) of the same substance?
A: less expression level of GFP mRNA in lungs

Q: And the pulmonary metastasis nodules ([3]; intravenous, 0.2 µg g^–1 AHP-DRI-12, every 2 days, seven times, lungs after 15 days)?
A: least amount of pulmonary metastasis nodules

Q: And the “metastatic loci in lungs, H&E staining” value ([3]; intravenous, 0.2 µg g^–1 AHP-DRI-12, 15 days, n = 6)?
A: less and smaller metastatic loci

Q: And the “spontaneous metastasis to lungs” value [4]?
A: efficiently restrain spontaneous metastasis to lungs

Q: What about the HUVECs cell viability (HUVECs) of the same substance?
A: remained essentially unchanged
